Laboratory results reported in PMC4865820, “Branched Peptide, B2088, Disrupts the Supramolecular Organization of Lipopolysaccharides and Sensitizes the Gram-negative Bacteria” (Scientific Reports, 2016).
Positions of bridges follow the written chain, without caps; N, C: chain ends. Residues, ends and D or L forms follow the SMILES beside them. Chains are numbered I, II in the order given.

Assays:
[1] = test system: P. aeruginosa ATCC 27853; format: cell-based; settings: ATCC 27853; for Fractional inhibitory concentration of peptide/PMB, combination with Genta: first number in parenthesis; for Fractional inhibitory concentration of antibiotic, Genta combination: second number in parenthesis
Description: (§1) The synergism between peptides with conventional antibiotics was evaluated using checkerboard assays. For a comparison polymyxin B (PMB) was also tested against each antibiotic. From their stock solutions, two-fold dilutions of each antibiotic and peptide to 1× MIC were prepared in MHB. 50 μl of each peptide concentration was added into the wells of a 96-well polystyrene plates (SPL Life Sciences Co. Ltd, Korea) in a horizontal orientation and the same volume of each antibiotic concentration were then added in a vertical orientation. Bacterial suspensions were prepared in MHB to yield final cell density of ~10^6 CFU/ml and 100 μl of bacterial suspension was mixed with each peptide-antibiotic combinations. This procedure was repeated for wells containing 200 μl of peptide alone and 200 μl of antibiotic alone in various concentrations. The positive and negative controls contained 200 μl of inoculum and MHB alone respectively. The plates were incubated at 37 °C for 24 hours and the optical density at 600 nm (OD600) was monitored as before. Fractional inhibitory concentration index (FICI) for all antibiotic- peptide combinations was calculated through the summation of (MIC of peptide in the combination/ MIC of peptide alone) and (MIC of antibiotics in combination/MIC of antibiotic alone). The experiments were performed in two independent duplicates and the combinations that gave the lowest FICI values was reported.

[2] = test system: P. aeruginosa DR4877/07; format: cell-based; settings: for Fractional inhibitory concentration of peptide/PMB, combination with Chloarm / Fractional inhibitory concentration of peptide/PMB, combination with Erythro / Fractional inhibitory concentration of peptide/PMB, combination with Levo / Fractional inhibitory concentration of peptide/PMB, combination with Tobra: first number in parenthesis; for Fractional inhibitory concentration of antibiotic, Chloarm combination / Fractional inhibitory concentration of antibiotic, Erythro combination / Fractional inhibitory concentration of antibiotic, Levo combination / Fractional inhibitory concentration of antibiotic, Tobra combination: second number in parenthesis
Description: as §1

[3] = test system: P. aeruginosa ATCC 27853; assay: microbe, parasite or virus in culture; format: cell-based; settings: ATCC 27853, 24 h
Description: (§2) MIC of each peptide was determined using the microdilution method in a 96 well microtitre plates (SPL Life Sciences Co., Ltd, Korea). Two-fold serial dilutions of each peptide in Mueller-Hinton Broth (MHB) was prepared from a 1 mg/ml stock solution of the peptide in the same broth, to obtain a final concentration in the range of 0.0976–50 μg/ml in each well. Bacterial suspensions (P. aeruginosa ATCC 27853, P. aeruginosa 4877, P. aeruginosa 23155, K. pneumoniae ATCC 10031 and K. pneumoniae 4299) were prepared by suspending the overnight cultured bacteria in saline and adjusting the inoculum to ~10^8 colony forming units (CFU) per ml. A further 150-fold dilution was then prepared in MHB to achieve a final cell density of 10^5–10^6 CFU/ml. In each well, 100 μl of inoculum was mixed with the equal volume of peptides at their 2× concentration. Positive and negative controls contained 200 μl of inoculum (without any peptide) and broth alone (no peptide/inoculum) respectively. Another negative control in which MHB containing 200 μl of peptide alone in its highest concentration tested (50 μg/ml) was also included to ensure that the optical density measured in the test wells was not due to turbidity of the peptides in solution. The 96 well polystyrene plates were then incubated at 37 °C for 24 h and the optical density at 600 nm (OD600) was measured every 30 min continuously using a TECAN microplate reader (TECAN Infinite 200, Austria). All the experiments were performed in two independent duplicates and the MIC was determined as the lowest peptide concentration in which no visible growth was observed.

[4] = test system: K. pneumonia 4299; assay: microbe, parasite or virus in culture; format: cell-based, K. pneumoniae; settings: 24 h
Description: as §2

[5] = test system: LPS (E. coli serotype 055:B5); assay: BODIPY TR cadaverine (BC) displacement assay with LPS; format: binding; settings: no unit in table; ED50 values in μM; 5 mM HEPES pH 7.4; duplicates; read-out: BC50 (LPS binding)
Excerpt: To investigate the interaction of B2088 with LPS, we performed the BODIPY TR cadaverine (BC) displacement assay reported by Wood et al.[22]. The probe binds to the lipid A part of the LPS with moderate affinity and can be displaced by putative LPS-binding molecules. The method was used to probe the affinity of polycationic molecules and LPS binding proteins. First, we determined the affinity of polymyxin B (PMB), a lipopeptide cyclic antibiotic which has a high affinity for LPS. […] Figure 1a,b show the concentration-dependent displacement of LPS/lipid A-bound BC upon addition of B2088. […] To confirm the importance of branching, we determined the BC50 for a linear retrodimer having the amino acid sequence, […] (Fig. 1d). The determined value was 2-fold higher (3.9 ± 0.1 μM) than that of B2088, confirming a weaker affinity of the linear peptide.
The BC displacement assay was used to determine the ability of each peptide to bind to LPS. The florescent probe, BODIPY TR cadaverine (BC) was purchased from Molecular Probes/ Invitrogen (USA). A stock solution containing 1 mg/ml of LPS (E. coli serotype 055:B5) was prepared in dimethyl sulfoxide (DMSO) and another stock solution containing 1 mg/ml of BC dye was prepared in 5 mM HEPES buffer (pH 7.4). The optimum saturation concentration of BC:LPS ratio was standardized following the protocol provided by Wood et al. (22). From the BC stock, 240 μl was mixed with 500 μl from the LPS stock solution in 5 mM HEPES buffer (pH 7.4) to prepare 20 ml of BC:LPS mixture. Two-fold serial dilutions of each peptide in 5 mM HEPES buffer (pH 7.4) was prepared from their 1 mg/ml stock solutions to obtain a final range of 0.02–25.6 μM. The BC:LPS mixture was added to 100 μl of each peptide congener in a 1:1 ratio in each well of a 96-well black Costar™ polystyrene microtitre plate (Corning Incorporated, NY, USA). The maximum fluorescence intensity (Fmax) was determined using a mixture containing 100 μl PMB (50 μg/ml) and 100 μl BC:LPS solution, as PMB is considered the ‘gold standard’ for LPS-sequestering agents. The minimum fluorescence intensity (F0) was measured using 200 μl of BC:LPS mixture to determine the background noise for this experiment. Fluorescence measurements for each peptide (F) were determined using a microplate reader (Model: TECAN Infinite 200, Austria) with excitation and emission wavelengths set at 580 nm and 620 nm respectively. The percentage of BC displacement was then calculated using the formula: […]
The experiments were performed in duplicates and the effective concentration required for 50% displacement of BC dye (ED50) from LPS with respect to PMB was determined by curve fitting using Graphpad Prism (CA, USA). A higher ED50 value for the peptide indicates a lower affinity for LPS.

[6] = test system: P. aeruginosa ATCC 9027; assay: Outer membrane permeability assay (NPN); format: cell-based; settings: no unit in table; Fig. S5 axis [Peptide], μM; 10 μM NPN, 5 mM HEPES pH 7.4, ex 355/em 405 nm; average of two titrations; read-out: PC50 (peptide concentration for half-maximal NPN intensity, OM permeability)
Description: The ability of each peptide to permeabilize the OM of Gram-negative organisms was determined using the hydrophobic fluorescent probe 1-N-phenylnaphthylamine (NPN) as previously reported. P. aeruginosa ATCC 9027 cells from an overnight MHB culture were harvested after centrifuging at 3000 rpm for 10 minutes. The pellet was washed twice, suspended in 5 mM HEPES (N- 2-hydroxyethylpiperazine-N’-2 ethanesulfonic acid) buffer (pH 7.4) and adjusted to an OD600 of 0.200. A suspension containing 600 μl of bacteria cells and 1 μl of a concentrated stock solution of NPN was mixed into a 10 mm stirred quartz cuvette so that the final concentration of the probe remained 10 μM. Aliquots containing 1 μl of each peptide in various concentrations (100, 50, 25, 15, 10, 5, 2.5 and 1 μg/ml) were added upon NPN dye stabilization. The fluorescence intensity was monitored using a Quanta Master spectrophotometer with a constant slit width of 0.5 nm, excitation and emission wavelengths set at 355 nm and 405 nm respectively. The peptide concentration required for half-maximal intensity (PC50) was determined by sigmoidal curve fitting using Graphpad Prism software. The experimental data is average of two independent titration experiments.

[7] = test system: K. pneumoniae ATCC10031; format: cell-based; settings: ATCC10031, 24 h
Description: as §2

[8] = test system: P. aeruginosa 23155; format: cell-based; settings: 23155, 24 h
Description: as §2

| SMILES | Fractional inhibitory concentration of peptide/PMB, combination with Genta [1] | Fractional inhibitory concentration of antibiotic, Genta combination [1] | Fractional inhibitory concentration of peptide/PMB, combination with Chloarm [2] | Fractional inhibitory concentration of peptide/PMB, combination with Erythro [2] | Fractional inhibitory concentration of peptide/PMB, combination with Levo [2] | Fractional inhibitory concentration of peptide/PMB, combination with Tobra [2] | Fractional inhibitory concentration of antibiotic, Chloarm combination [2] | Fractional inhibitory concentration of antibiotic, Erythro combination [2] | Fractional inhibitory concentration of antibiotic, Levo combination [2] | Fractional inhibitory concentration of antibiotic, Tobra combination [2] | Minimum Inhibitory Concentration against P. aeruginosa ATCC 27853 [3] [µM] | Minimum Inhibitory Concentration against K. pneumonia 4299 [4] [µM] | EC50 [5] [µM] | EC50 [6] [µM] | Minimum Inhibitory Concentration against K. pneumoniae ATCC10031 [7] [µM] | Minimum Inhibitory Concentration against P. aeruginosa 23155 [8] [µM] |
| --- | --- | --- | --- | --- | --- | --- | --- | --- | --- | --- | --- | --- | --- | --- | --- | --- |
| C[C@H](NC(=O)[C@H](C)NC(=O)[C@H](CCCCN)NC(=O)[C@H](CCCNC(=N)N)NC(=O)CNC(=O)[C@@H](N)CCCNC(=N)N)C(=O)N[C@@H](CCCNC(=N)N)C(=O)N[C@@H](CCCNC(=N)N)C(=O)NCCCC[C@H](NC(=O)[C@H](CCCNC(=N)N)NC(=O)[C@H](CCCNC(=N)N)NC(=O)[C@H](C)NC(=O)[C@H](C)NC(=O)[C@H](CCCCN)NC(=O)[C@H](CCCNC(=N)N)NC(=O)CNC(=O)[C@@H](N)CCCNC(=N)N)C(=O)N[C@@H](CCCCN)C(=O)O (I: H-RGRKAARRKK-OH / II: H-RGRKAARR; amide I:9-II:C; N-terminus and C-terminus assumed) | 0.5 | 0.06 | 0.5 | (0.5,0.5) | 0.5 | 0.5 | 0.13 | (0.5,0.5) | 0.25 | 0.25 | 11.5 | 23 | 2.1 ± 0.2 | 21.7 ± 0.8 | 11.5 | 11.5 |
| N=C(N)NCCC[C@H](NC(=O)CNC(=O)[C@@H](N)CCCNC(=N)N)C(=O)N[C@@H](CCCCN)C(=O)N[C@@H](Cc1ccccc1)C(=O)N[C@@H](Cc1ccccc1)C(=O)N[C@@H](CCCNC(=N)N)C(=O)N[C@@H](CCCNC(=N)N)C(=O)NCCCC[C@H](NC(=O)[C@H](CCCNC(=N)N)NC(=O)[C@H](CCCNC(=N)N)NC(=O)[C@H](Cc1ccccc1)NC(=O)[C@H](Cc1ccccc1)NC(=O)[C@H](CCCCN)NC(=O)[C@H](CCCNC(=N)N)NC(=O)CNC(=O)[C@@H](N)CCCNC(=N)N)C(=O)N[C@@H](CCCCN)C(=O)O (I: H-RGRKFFRRKK-OH / II: H-RGRKFFRR; amide I:9-II:C; N-terminus and C-terminus assumed) | (0.25,0.25) | (0.25,0.25) | 0.25 | (0.5,0.5) | (0.5,0.5) | 0.25 | 0.13 | (0.5,0.5) | (0.5,0.5) | 0.06 | 5.0 | 10.1 | 0.93 ± 0.01 | 10 ± 0.3 | 5.0 | 5.0 |
